Experimental data: PMC3172808 (Journal of medicinal chemistry, 2011)

How the values were obtained:
[1] = rodents; ref [7]–[9]; cited from earlier work
[2] = test system: renal carcinoma cell line 786-0; experiment: potency toward MDR-1 expressing 786-0 cells with and without verapamil; assay type: cell-based
aqueous solubility = assay type: physicochemical
[3] = over 24 h; ref [16]; cited from earlier work
[4] = test system: MDA-MB-231 breast cancer model; conditions: continued dosing at 40 mg/kg (½MTD), ref [16], cited from earlier work
MCF-7 cancer cells = conditions: read-out: MCF-7 IC50; Table 1; ref [17]–[20]; cited from earlier work
A2780ADR = experiment: potency toward A2780ADR; assay type: cell-based, human; conditions: read-out: drug IC50 A2780ADR; adriamycin resistant, MDR-1 overexpression
A2780cis = experiment: potency toward A2780cis; assay type: cell-based, human; conditions: read-out: drug IC50 A2780cis; cisplatin resistant

## COc1cc2c(c(OC)c1OC)-c1ccc(OC)c(=O)cc1[C@@H](NC(C)=O)CC2 [Compound 1, colchicine]
[1]
  LD50: < 5 mg/kg

## COc1cc(C(=O)c2c(C)oc3c(O)c(OC)ccc23)cc(OC)c1OC [Compound 8, 7-hydroxy-6-methoxy-2-methyl-3-(3,4,5-trimethoxybenzoyl)benzo-[b]furan]
[2]
  MDR-1 transporter substrate: not a substrate for the MDR-1 transporter
Aqueous solubility
  aqueous solubility: poor
[3]
  clearance from healthy tissues: completely cleared from healthy tissues over 24 h

## COc1cc(C(=O)c2c(C)oc3c(OP(=O)([O-])[O-])c(OC)ccc23)cc(OC)c1OC.[Na+].[Na+] [Compound 9, Disodium (6-Methoxy-2-methyl-3-(3,4,5-trimethoxybenzoyl)benzofuran-7-yl)phosphate]
[4]; after 70 days
  complete eradication of tumors, % of the mice: 14%
[4]
  tumor growth on continued dosing: completely suppresses tumor growth

## COc1ccc(-c2sccc2C(=O)c2cc(OC)c(OC)c(OC)c2)cc1O [Compound 14]
MCF-7 cancer cells
  IC50: 300 ± 400 nM

## N.N.[Cl][Pt][Cl] [cisplatin]
A2780ADR
  IC50: 1100 nM
A2780cis
  IC50: 5020 nM
